Results on 26 molecules are retold here after US9884048B2, “ERK inhibitors” (Merck Sharp & Dohme Corp., priority 2014, dated 2018).

What is called IC50 is the concentration at which inhibition is half-maximal.

The target of this experiment is phosphorylated active hERK2 enzyme (Homo sapiens (Human), UniProt P28482). As to conditions: read-out: ERK2 IC50; IMAP-FP assay; 0.5 nM hERK2, 30 μM ATP; 10 point titration, 3 μM starting concentration.

The structures appear in SMILES notation.

phosphorylated active hERK2 enzyme, sequence (P28482 whole entry): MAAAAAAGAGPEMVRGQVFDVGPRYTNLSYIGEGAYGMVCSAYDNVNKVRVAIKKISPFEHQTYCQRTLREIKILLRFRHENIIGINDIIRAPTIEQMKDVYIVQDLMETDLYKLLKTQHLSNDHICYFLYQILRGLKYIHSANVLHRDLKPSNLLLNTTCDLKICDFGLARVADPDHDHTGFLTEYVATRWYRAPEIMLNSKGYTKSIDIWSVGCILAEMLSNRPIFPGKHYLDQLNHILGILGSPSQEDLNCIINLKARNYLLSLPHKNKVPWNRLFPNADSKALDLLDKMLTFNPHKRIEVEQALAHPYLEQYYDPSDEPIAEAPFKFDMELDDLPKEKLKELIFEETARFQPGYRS

With `Cc1cc(-n2ncc3cc(NC(=O)NCC(c4ccccc4)N4CCC(F)(F)CC4)ncc32)ccn1` (centres unmarked) [Example 55, 1-[2-(4,4-difluoropiperidin-1-yl)-2-phenylethyl]-3-[1-(2-methylpyridin-4-yl)-1H-pyrazolo[3,4-c]pyridin-5-yl]urea], the IC50 was 85.1 nM.

For `COc1cccc(F)c1CN1CCC[C@@H](NC(=O)Nc2cc3cnn(-c4ccnc(C)c4)c3cn2)C1` [Example 56, 1-[(3R)-1-(2-fluoro-6-methoxybenzyl)piperidin-3-yl]-3-[1-(2-methylpyridin-4-yl)-1H-pyrazolo[3,4-c]pyridin-5-yl]urea], the IC50 came out at 0.524 nM.

`Cc1cc(-n2ncc3cc(NC(=O)NC4CN(C)CC4c4ccccc4)ncc32)ccn1` (centres unmarked) [Example 57, 1-(1-methyl-4-phenylpyrrolidin-3-yl)-3-[1-(2-methylpyridin-4-yl)-1H-pyrazolo[3,4-c]pyridin-5-yl]urea]: the IC50 was determined as 0.823 nM. The result for `Cc1cc(-n2ncc3cc(NC(=O)NCc4ccccc4)ncc32)ccn1` [Example 58, 1-benzyl-3-[1-(2-methylpyridin-4-yl)-1H-pyrazolo[3,4-c]pyridin-5-yl]urea] reads 8.41 nM; that for `Cc1cc(-n2ncc3cc(NC(=O)N[C@H](C)c4ccccc4)ncc32)ccn1` [Example 59, 1-[1-(2-methylpyridin-4-yl)-1H-pyrazolo[3,4-c]pyridin-5-yl]-3-[(1R)-1-phenylethyl]urea], 1.01 nM; that for `Cc1cc(-n2ncc3cc(NC(=O)NCc4cnn(-c5ccc(F)cc5)c4)ncc32)ccn1` [Example 60, 1-{[1-(4-fluorophenyl)-1H-pyrazol-4-yl]methyl}-3-[1-(2-methylpyridin-4-yl)-1H-pyrazolo[3,4-c]pyridin-5-yl]urea], 1630 nM. `Cc1cc(-n2ncc3cc(NC(=O)NCC(F)(F)c4ccccc4)ncc32)ccn1` [Example 61, 1-(2,2-difluoro-2-phenylethyl)-3-[1-(2-methylpyridin-4-yl)-1H-pyrazolo[3,4-c]pyridin-5-yl]urea]: the IC50 came to 193 nM. For `Cc1cc(-n2ncc3cc(NC(=O)NC(CN)c4ccccc4)ncc32)ccn1` (centres unmarked) [Example 62, 1-(2-amino-1-phenylethyl)-3-[1-(2-methylpyridin-4-yl)-1H-pyrazolo[3,4-c]pyridin-5-yl]urea], the IC50 is 0.962 nM. With `Cc1cc(-n2ncc3cc(NC(=O)NC4CNCC4c4ccccc4)ncc32)ccn1` (centres unmarked) [Example 63, 1-[1-(2-methylpyridin-4-yl)-1H-pyrazolo[3,4-c]pyridin-5-yl]-3-(4-phenylpyrrolidin-3-yl)urea] the figure was 54.4 nM; with `Cc1cc(-n2ncc3cc(NC(=O)NCc4cnn5ccccc45)ncc32)ccn1` [Example 64, 1-[1-(2-methylpyridin-4-yl)-1H-pyrazolo[3,4-c]pyridin-5-yl]-3-(pyrazolo[1,5-a]pyridin-3-ylmethyl)urea], 71.6 nM. With `Cc1cc(-n2ncc3cc(NC(=O)N[C@H](CO)c4ccccc4)ncc32)ccn1` [Example 65, 1-[(1S)-2-hydroxy-1-phenylethyl]-3-[1-(2-methylpyridin-4-yl)-1H-pyrazolo[3,4-c]pyridin-5-yl]urea] the figure was 1.02 nM; with `Cc1cc(-n2ncc3cc(NC(=O)NC(C)c4ccc(S(C)(=O)=O)cc4)ncc32)ccn1` (centres unmarked) [Example 66, 1-[1-(2-methylpyridin-4-yl)-1H-pyrazolo[3,4-c]pyridin-5-yl]-3-{1-[4-(methylsulfonyl)phenyl]ethyl}urea], 7.78 nM; with `Cc1cc(-n2ncc3cc(NC(=O)NC4CNC(c5ccccc5)C4)ncc32)ccn1` (centres unmarked) [Example 67, 1-[1-(2-methylpyridin-4-yl)-1H-pyrazolo[3,4-c]pyridin-5-yl]-3-(5-phenylpyrrolidin-3-yl)urea], 200 nM. The result for `Cc1cc(-n2ncc3cc(NC(=O)NCc4sc(C(C)C)nc4C)ncc32)ccn1` [Example 68, 1-{[4-methyl-2-(1-methylethyl)-1,3-thiazol-5-yl]methyl}-3-[1-[2-methylpyridin-4-yl)-1H-pyrazolo[3,4-c]pyridin-5-yl]urea] reads 707 nM. As to `Cc1cc(-n2ncc3cc(NC(=O)NCC4(c5ccccc5)CCOC4)ncc32)ccn1` (centres unmarked) [Example 69, 1-[1-(2-methylpyridin-4-yl)-1H-pyrazolo[3,4-c]pyridin-5-yl]-3-[(3-phenyltetrahydrofuran-3-yl)methyl]urea], the IC50 was determined as 17.7 nM. With `Cc1cc(-n2ncc3cc(NC(=O)NCCN4CC5CC4CN5c4ccccc4)ncc32)ccn1` (centres unmarked) [Example 70, 1-[1-(2-methylpyridin-4-yl)-1H-pyrazolo[3,4-c]pyridin-5-yl]-3-[2-(5-phenyl-2,5-diazabicyclo[2.2.1]hept-2-yl)ethyl]urea] the figure was 16.9 nM. For the molecule `Cc1cc(-n2ncc3cc(NC(=O)NC(CCN(C)C)c4ccccn4)ncc32)ccn1` (centres unmarked) [Example 72, 1-[3-(dimethylamino)-1-pyridin-2-ylpropyl]-3-[1-(2-methylpyridin-4-yl)-1H-pyrazolo[3,4-c]pyridin-5-yl]urea], the IC50 is 10.2 nM. The result for `Cc1cc(-n2ncc3cc(NC(=O)NCC(c4ccccn4)N4CCOCC4)ncc32)ccn1` (centres unmarked) [Example 73, 1-[1-(2-methylpyridin-4-yl)-1H-pyrazolo[3,4-c]pyridin-5-yl]-3-(2-morpholin-4-yl-2-pyridin-2-ylethyl)urea] reads 243 nM. With `Cc1cc(-n2ncc3cc(NC(=O)NCc4ccc5c(c4)CC(=O)N5)ncc32)ccn1` [Example 74, 1-[1-(2-methylpyridin-4-yl)-1H-pyrazolo[3,4-c]pyridin-5-yl]-3-[(2-oxo-2,3-dihydro-1H-indol-5-yl)methyl]urea] the figure was 73.1 nM. For `Cc1cc(-n2ncc3cc(NC(=O)NCc4cccc(-n5cccn5)c4)ncc32)ccn1` [Example 75], the half-maximal inhibitory concentration (IC50) worked out at 5.28 nM. With `Cc1cc(-n2ncc3cc(NC(=O)NCc4ccc(-n5cccn5)cc4)ncc32)ccn1` [Example 76, 1-[1-(2-methylpyridin-4-yl)-1H-pyrazolo[3,4-c]pyridin-5-yl]-3-[4-(1H-pyrazol-1-yl)benzyl]urea] the figure was 1110 nM; with `Cc1cc(-n2ncc3cc(NC(=O)NC45CC6CC(CC(O)(C6)C4)C5)ncc32)ccn1` [Example 77, 1-(3-hydroxytricyclo[3.3.1.1~3,7~]dec-1-yl)-3-[1-(2-methylpyridin-4-yl)-1H-pyrazolo[3,4-c]pyridin-5-yl)urea], 1880 nM.

As for `Cc1cc(-n2ncc3cc(NC(=O)NC4CCN(c5ccccc5)CC4)ncc32)ccn1` [Example 78, 1-[1-(2-methylpyridin-4-yl)-1H-pyrazolo[3,4-c]pyridin-5-yl]-3-(1-phenylpiperidin-4-yl)urea], the half-maximal inhibitory concentration (IC50) worked out at 1740 nM. The result for `Cc1cc(-n2ncc3cc(NC(=O)NCC4CN(c5ccccc5)CCO4)ncc32)ccn1` (centres unmarked) [Example 79, 1-[1-(2-methylpyridin-4-yl)-1H-pyrazolo[3,4-c]pyridin-5-yl]-3-[(4-phenylmorpholin-2-yl)methyl]urea] reads 26.5 nM; that for `Cc1cc(-n2ncc3cc(NC(=O)NC4CC(=O)Nc5ccccc54)ncc32)ccn1` (centres unmarked) [Example 80, 1-[1-(2-methylpyridin-4-yl)-1H-pyrazolo[3,4-c]pyridin-5-yl]-3-(2-oxo-1,2,3,4-tetrahydroquinolin-4-yl)urea], 196 nM. The result for `Cc1cc(-n2ncc3cc(NC(=O)N[C@@H](c4ccccc4)C(F)F)ncc32)ccn1` [Example 81, 1-[(1S)-2,2-difluoro-1-phenylethyl]-3-[1-(2-methylpyridin-4-yl)-1H-pyrazolo[3,4-c]pyridin-5-yl)urea] reads 914 nM.
